In patent US9926302B2, “Heteroaryl substituted heterocyclyl sulfones” (priority 2014, dated 2018):

What follows are molecules tested against T1, Human CaV2.2 channels (Homo sapiens, UniProt Q00975) (assay: Fluorescence assay for CaV2.2 channels using potassium depolarization to induce channel opening (FLIPR, Fluo 4)). Settings: 3 μM test compound; alternative assay buffer 30 mM KCl (inactivated channel state); HEK293 cells stably expressing human CaV2.2.
T1 construct: expressed in transfected cells
T1 sequence (P54289 947-1103): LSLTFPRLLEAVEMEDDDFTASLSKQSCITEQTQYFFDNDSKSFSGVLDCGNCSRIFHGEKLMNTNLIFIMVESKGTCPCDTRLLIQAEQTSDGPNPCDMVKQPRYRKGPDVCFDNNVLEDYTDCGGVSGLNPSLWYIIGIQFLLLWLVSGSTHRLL
T1 sequence (P54289 25-946): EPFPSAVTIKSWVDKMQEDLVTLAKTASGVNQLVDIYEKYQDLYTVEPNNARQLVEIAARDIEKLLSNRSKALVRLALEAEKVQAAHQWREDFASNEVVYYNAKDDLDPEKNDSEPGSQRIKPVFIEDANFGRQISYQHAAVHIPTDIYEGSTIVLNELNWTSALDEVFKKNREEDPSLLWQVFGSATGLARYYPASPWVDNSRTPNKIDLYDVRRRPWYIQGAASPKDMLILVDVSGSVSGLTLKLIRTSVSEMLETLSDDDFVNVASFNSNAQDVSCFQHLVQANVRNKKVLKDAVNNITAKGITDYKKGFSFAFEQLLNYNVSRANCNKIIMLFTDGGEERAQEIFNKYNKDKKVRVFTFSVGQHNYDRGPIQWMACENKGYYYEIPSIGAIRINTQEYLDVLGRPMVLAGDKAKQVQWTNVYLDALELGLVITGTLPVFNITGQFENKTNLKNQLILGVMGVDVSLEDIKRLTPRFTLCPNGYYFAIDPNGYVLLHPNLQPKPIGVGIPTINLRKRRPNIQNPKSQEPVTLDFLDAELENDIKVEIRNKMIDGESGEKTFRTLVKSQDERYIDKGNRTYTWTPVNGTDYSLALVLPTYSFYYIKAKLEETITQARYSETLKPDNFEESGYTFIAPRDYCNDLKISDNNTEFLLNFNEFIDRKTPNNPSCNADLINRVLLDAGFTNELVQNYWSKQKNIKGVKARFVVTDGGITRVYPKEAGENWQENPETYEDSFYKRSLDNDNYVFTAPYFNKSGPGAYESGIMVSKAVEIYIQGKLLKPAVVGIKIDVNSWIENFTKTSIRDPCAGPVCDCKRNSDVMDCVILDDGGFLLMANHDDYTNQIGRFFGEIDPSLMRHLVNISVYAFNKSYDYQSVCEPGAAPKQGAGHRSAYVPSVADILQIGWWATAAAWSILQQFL
T1 sequence (P54284 whole entry, further chain): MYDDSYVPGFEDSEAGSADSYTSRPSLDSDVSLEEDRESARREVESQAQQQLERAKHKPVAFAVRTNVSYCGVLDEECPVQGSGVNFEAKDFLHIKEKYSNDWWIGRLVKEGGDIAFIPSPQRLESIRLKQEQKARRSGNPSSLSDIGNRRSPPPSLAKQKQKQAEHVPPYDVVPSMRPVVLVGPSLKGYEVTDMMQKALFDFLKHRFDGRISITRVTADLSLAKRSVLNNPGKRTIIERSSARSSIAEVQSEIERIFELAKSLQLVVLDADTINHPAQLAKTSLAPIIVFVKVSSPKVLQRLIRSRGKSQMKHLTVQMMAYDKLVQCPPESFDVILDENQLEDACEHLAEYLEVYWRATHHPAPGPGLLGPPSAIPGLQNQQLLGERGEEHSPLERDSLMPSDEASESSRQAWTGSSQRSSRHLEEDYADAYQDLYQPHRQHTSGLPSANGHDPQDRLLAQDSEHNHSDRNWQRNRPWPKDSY
T1 sequence (Q00975 whole entry): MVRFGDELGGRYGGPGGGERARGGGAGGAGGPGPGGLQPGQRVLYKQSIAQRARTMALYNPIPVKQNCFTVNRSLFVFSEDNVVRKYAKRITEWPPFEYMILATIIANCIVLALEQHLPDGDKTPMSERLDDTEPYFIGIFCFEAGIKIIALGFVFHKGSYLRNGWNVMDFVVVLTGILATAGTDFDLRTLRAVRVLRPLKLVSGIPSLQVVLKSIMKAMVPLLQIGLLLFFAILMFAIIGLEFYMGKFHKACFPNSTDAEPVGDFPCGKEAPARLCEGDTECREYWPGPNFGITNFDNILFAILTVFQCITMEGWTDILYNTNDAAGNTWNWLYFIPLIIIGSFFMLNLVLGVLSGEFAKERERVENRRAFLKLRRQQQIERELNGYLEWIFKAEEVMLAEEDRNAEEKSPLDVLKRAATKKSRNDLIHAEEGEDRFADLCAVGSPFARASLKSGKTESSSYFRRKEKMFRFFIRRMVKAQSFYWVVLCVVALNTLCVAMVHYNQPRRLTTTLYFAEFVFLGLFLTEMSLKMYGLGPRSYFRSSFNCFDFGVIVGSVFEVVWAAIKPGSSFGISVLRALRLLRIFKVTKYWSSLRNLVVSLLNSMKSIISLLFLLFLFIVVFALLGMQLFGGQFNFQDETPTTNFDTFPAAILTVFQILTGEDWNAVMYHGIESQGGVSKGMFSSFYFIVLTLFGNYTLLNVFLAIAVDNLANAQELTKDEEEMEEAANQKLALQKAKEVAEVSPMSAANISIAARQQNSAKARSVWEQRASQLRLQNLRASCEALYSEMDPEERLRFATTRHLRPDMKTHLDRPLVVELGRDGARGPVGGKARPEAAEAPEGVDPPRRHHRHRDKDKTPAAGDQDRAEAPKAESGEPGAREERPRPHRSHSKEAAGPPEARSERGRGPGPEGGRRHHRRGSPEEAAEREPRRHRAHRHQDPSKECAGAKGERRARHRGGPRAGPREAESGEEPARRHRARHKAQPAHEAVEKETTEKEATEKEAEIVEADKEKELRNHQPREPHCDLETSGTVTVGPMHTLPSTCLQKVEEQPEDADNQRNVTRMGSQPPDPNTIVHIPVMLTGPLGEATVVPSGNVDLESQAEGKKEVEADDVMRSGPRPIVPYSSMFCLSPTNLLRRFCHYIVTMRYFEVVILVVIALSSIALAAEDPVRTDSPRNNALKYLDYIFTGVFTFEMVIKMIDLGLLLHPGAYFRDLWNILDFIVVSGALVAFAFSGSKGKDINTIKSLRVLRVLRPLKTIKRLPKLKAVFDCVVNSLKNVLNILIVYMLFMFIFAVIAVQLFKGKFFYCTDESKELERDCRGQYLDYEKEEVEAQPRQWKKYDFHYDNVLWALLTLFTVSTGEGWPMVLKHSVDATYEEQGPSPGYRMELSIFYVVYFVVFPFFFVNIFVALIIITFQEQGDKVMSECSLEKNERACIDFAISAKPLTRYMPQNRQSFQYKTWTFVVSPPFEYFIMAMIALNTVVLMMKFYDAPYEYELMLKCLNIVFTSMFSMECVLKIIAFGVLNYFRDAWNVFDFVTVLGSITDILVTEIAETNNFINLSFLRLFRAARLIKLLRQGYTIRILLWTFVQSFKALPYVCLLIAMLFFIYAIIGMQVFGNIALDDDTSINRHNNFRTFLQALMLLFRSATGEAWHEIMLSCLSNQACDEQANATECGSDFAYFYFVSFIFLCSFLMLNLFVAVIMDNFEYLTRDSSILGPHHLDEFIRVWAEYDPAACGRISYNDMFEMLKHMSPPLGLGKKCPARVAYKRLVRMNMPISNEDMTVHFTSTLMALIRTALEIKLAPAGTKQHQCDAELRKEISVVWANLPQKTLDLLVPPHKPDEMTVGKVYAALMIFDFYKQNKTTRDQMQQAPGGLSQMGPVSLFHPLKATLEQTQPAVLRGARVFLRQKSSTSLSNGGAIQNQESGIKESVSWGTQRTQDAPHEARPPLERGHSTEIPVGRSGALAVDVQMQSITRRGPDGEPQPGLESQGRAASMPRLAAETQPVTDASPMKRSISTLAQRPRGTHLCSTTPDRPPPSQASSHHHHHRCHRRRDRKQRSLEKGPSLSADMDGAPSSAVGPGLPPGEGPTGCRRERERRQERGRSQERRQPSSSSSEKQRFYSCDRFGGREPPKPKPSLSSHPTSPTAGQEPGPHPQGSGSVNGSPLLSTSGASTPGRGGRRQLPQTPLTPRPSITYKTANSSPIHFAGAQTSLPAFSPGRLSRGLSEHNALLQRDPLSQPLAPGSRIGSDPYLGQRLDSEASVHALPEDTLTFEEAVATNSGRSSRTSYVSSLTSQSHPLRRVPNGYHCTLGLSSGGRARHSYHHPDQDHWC
Format: cell-based
From the text: In the process, the Ca^2+ influx is quantified in the FLIPR assay with the aid of a Ca^2+-sensitive dye (type Fluo-4, Molecular Probes Europe BV, Leiden, the Netherlands) in a fluorescent imaging plate reader (FLIPR 3, Molecular Devices, Sunnyvale, USA), as described hereinafter.
2.1 Fluorescence Assay for CaV2.2 Channels Using Potassium Depolarization to Induce Channel Opening
Human CaV2.2 channels were stably expressed in HEK293 cells together with alpha2-delta and beta subunits of voltage gated calcium channels. In addition, an inwardly rectifying potassium channel (Kir2.3) was stably expressed in these cells to augment control of the cell membrane potential by the concentration of extracellular potassium ions. Raise of the extracellular potassium concentration leads to depolarization of the membrane potential and thus regulates the voltage dependent state of CaV2.2 channels. For preparation, cells were seeded in black poly-D-lysine coated 96-well plates (Becton Dickinson, Biocoat 4640) in 100 μL medium [500 mL DMEM/F-12 plus Glutamax (Invitrogen 31331-093) plus 5.5 mL MEM NEAA 100× (Invitrogen 11140-035) plus 50 mL FBS decomplemented (Invitrogen 10270-106) plus 200 μg/mL Geneticin (Invitrogen 10131-027) plus 50 μg/mL Hygromycin B (Invitrogen 10687-010) plus 2 μg/mL Blasticidin (anti-bl5b Invivo-Gen) plus 0.2 μg/mL Puromycin (A 11138-03)] at a cell density of 30.000 cells per well. Plates were incubated at 37° C. (5% CO2) for 20 to 23 h. On the day of experiment medium was discarded and cells were loaded with Fluo 4 by addition of 100 μL of basic assay buffer (10 mM HEPES, 1 mM KCl, 149 mM NaCl, 0.8 mM CaCl2, 1.7 mM MgCl2, 10 mM Glucose, 0.1% BSA. pH 7.4) containing 2 μM Fluo 4 (Molecular Probes; F-14201), 0.01% pluronic acid (Molecular Probes; P-6866) and 2.5 mM probenecid (Molecular Probes; P36400). Cells were incubated in the dark at 25° C. for 60 min. Then dye containing buffer was discarded and 100 μL basic (1 mM KCl) or alternative (30 mM KCl) assay buffer was added. The alternative assay buffer contained altered concentrations of KCl (30 mM) and NaCl (120 mM) and was used in order to promote the inactivated channel state. After that 25 μL of basic or alternative assay buffer with or without test compound were added and cells were incubated again in the dark at 25° C. for 15 min. Fluorescence intensity was measured on a FLIPR 3 instrument (Molecular Devices Corp., Sunnyvale, Calif.) with excitation at 480 nm and emission at 535 nm. After continuously reading fluorescence for 30 sec, 50 μL of basic assay buffer containing 210 mM KCl (NaCl omitted) were added for depolarization. Peak fluorescent signal intensity was determined and the amplitude of the peak signal, normalized to base line, was used to measure channel inhibition by test compounds.
With `CC1(S(=O)(=O)c2cccc(C(F)(F)F)c2)CCOC(c2cncc(C(F)(F)F)c2)C1` (single isomer, unassigned) [SC-116, 3-[4-Methyl-4-[[3-(trifluoromethyl)phenyl]sulfonyl]-tetrahydro-pyran-2-yl]-5-(trifluoromethyl)-pyridine] the “Activity Category: %-Inhib (CaV2.2) @3 μM @30 mM KCl” value (shortened to “Activity Category: %-Inhib”) was “A (%-Inhibition >95%)”.
With `CC1(S(=O)(=O)c2cccc(Cl)c2)CCOC(c2ncc(S(C)(=O)=O)cc2Cl)C1` (centres unmarked) [SC-439, 3-Chloro-2-[4-[(3-chlorophenyl)sulfonyl]-4-methyl-tetrahydro-pyran-2-yl]-5-methylsulfonyl-pyridine] the “Activity Category: %-Inhib” value was “C (%-Inhibition >40% up to ≤75%)”.
`CC1(S(=O)(=O)c2cccc(Cl)c2)CCOC(c2ncc(S(C)(=O)=O)cc2Cl)C1` (centres unmarked) [SC-440, 3-Chloro-2-[4-[(3-chlorophenyl)sulfonyl]-4-methyl-tetrahydro-pyran-2-yl]-5-methylsulfonyl-pyridine] was tested, and the “Activity Category: %-Inhib” value was “B (%-Inhibition >75% up to ≤95%)”.
For `COc1cc(C#N)c(C2CC(C)(S(=O)(=O)c3cccc(C(F)(F)F)c3)CCO2)cn1` (centres unmarked) [SC-260, 2-Methoxy-5-[4-methyl-4-[[3-(trifluoromethyl)phenyl]sulfonyl]-tetrahydro-pyran-2-yl]-isonicotinonitrile], the “Activity Category: %-Inhib” value was “A (%-Inhibition >95%)”.
`Cc1cc(S(C)(=O)=O)cnc1C1CC(C)(S(=O)(=O)c2cccc(OC(F)(F)F)c2)CCO1` (centres unmarked) [SC-450, 3-Methyl-5-methylsulfonyl-2-[4-methyl-4-[[3-(trifluoromethyloxy)-phenyl]sulfonyl]-tetrahydro-pyran-2-yl]-pyridine] was tested, and the “Activity Category: %-Inhib” value was “C (%-Inhibition >40% up to ≤75%)”.
`CC1(S(=O)(=O)c2cccc(C(F)(F)F)c2)CCOC(COc2cnc(C3CC3)cn2)C1` (single isomer, unassigned) [SC-133, 2-Cyclopropyl-5-[[4-methyl-4-[[3-(trifluoromethyl)phenyl]sulfonyl]-tetrahydro-pyran-2-yl]-methoxy]-pyrazine] was tested, and the “Activity Category: %-Inhib” value was “A (%-Inhibition >95%)”.
`CC1(S(=O)(=O)c2cccc(OC(F)(F)F)c2)CCOC(c2ncc(C(F)(F)F)cc2S(C)(=O)=O)C1` (centres unmarked) [SC-221, 3-Methylsulfonyl-2-[4-methyl-4-[[3-(trifluoromethyloxy)-phenyl]sulfonyl]-tetrahydro-pyran-2-yl]-5-(trifluoromethyl)-pyridine] was tested, and the “Activity Category: %-Inhib” value was “B (%-Inhibition >75% up to ≤95%)”.
For `Cc1ccc(OCC2CC(C)(S(=O)(=O)c3cccc(C(F)(F)F)c3)CCO2)cn1` (single isomer, unassigned) [SC-113, 2-Methyl-5-[[4-methyl-4-[[3-(trifluoromethyl)phenyl]sulfonyl]-tetrahydro-pyran-2-yl]-methoxy]-pyridine], the “Activity Category: %-Inhib” value was “B (%-Inhibition >75% up to ≤95%)”.
In the case of `CC1(S(=O)(=O)c2cccc(C(F)(F)F)c2)CCOC(c2ccc(Cl)cn2)C1` (centres unmarked) [SC-244, 5-Chloro-2-[4-methyl-4-[[3-(trifluoromethyl)phenyl]sulfonyl]-tetrahydro-pyran-2-yl]-pyridine], the “Activity Category: %-Inhib” value is reported as “B (%-Inhibition >75% up to ≤95%)”.

Same assay, conditions: HEK293, 3 μM test compound; alternative assay buffer 30 mM KCl (inactivated channel state); HEK293 cells stably expressing human CaV2.2; read-out: Activity Category: %-Inhib (CaV2.2) @3 μM @30 mM KCl
Work on `COc1cc(C)c(C2CC(C)(S(=O)(=O)c3cccc(C(F)(F)F)c3)CCO2)cn1` (racemic) [SC-252, 2-Methoxy-4-methyl-5-[4-methyl-4-[[3-(trifluoromethyl)phenyl]sulfonyl]-tetrahydro-pyran-2-yl]-pyridine] yielded an inhibition at 3 µM of 75 to 95%.
For `CC1(S(=O)(=O)c2cc(F)cc(C(F)F)c2)CCOC(c2ncc(S(C)(=O)=O)cc2Cl)C1` (centres unmarked) [SC-216, 3-Chloro-2-[4-[[3-(difluoro-methyl)-5-fluoro-phenyl]sulfonyl]-4-methyl-tetrahydro-pyran-2-yl]-5-methylsulfonyl-pyridine], the inhibition at 3 µM was 40 to 75%.
`CN(C)c1ccc(C2CC(C)(S(=O)(=O)c3cccc(C(F)(F)F)c3)CCO2)cn1` (centres unmarked) [SC-330, Dimethyl-[5-[4-methyl-4-[[3-(trifluoromethyl)phenyl]sulfonyl]-tetrahydro-pyran-2-yl]-pyridin-2-yl]-amine] showed an inhibition at 3 µM of 75 to 95%.
Molecule `CCC1(S(=O)(=O)c2cccc(C(F)(F)F)c2)CCOC(c2nnc(C3CC3)o2)C1` (centres unmarked) [SC-206, 2-Cyclopropyl-5-[4-ethyl-4-[[3-(trifluoromethyl)phenyl]sulfonyl]-tetrahydro-pyran-2-yl]-[1,3,4]oxadiazole] has an inhibition at 3 µM of 40 to 75%.
For `CNc1ccc(C2CC(C)(S(=O)(=O)c3cccc(C(F)(F)F)c3)CCO2)cn1` (racemic) [SC-412, Methyl-[5-[4-methyl-4-[[3-(trifluoromethyl)phenyl]sulfonyl]-tetrahydro-pyran-2-yl]-pyridin-2-yl]-amine], the inhibition at 3 µM was 75 to 95%.
For `CC1(S(=O)(=O)c2cccc(C(F)(F)F)c2)CCOC(c2ncc(C3CC3)cc2Cl)C1` (centres unmarked) [SC-425, 3-Chloro-5-cyclopropyl-2-[4-methyl-4-[[3-(trifluoromethyl)phenyl]sulfonyl]-tetrahydro-pyran-2-yl]-pyridine], the inhibition at 3 µM was > 95%.
In the case of `CCC1(S(=O)(=O)c2cccc(C(F)(F)F)c2)CCOC(c2nc(C(F)(F)F)no2)C1` (centres unmarked) [SC-200, 5-[4-Ethyl-4-[[3-(trifluoromethyl)phenyl]sulfonyl]-tetrahydro-pyran-2-yl]-3-(trifluoromethyl)-[1,2,4]oxadiazole], the inhibition at 3 µM is reported as 75 to 95%.
For `COc1cc(C)c(C2CC(C)(S(=O)(=O)c3cccc(C(F)(F)F)c3)CCO2)cn1` (centres unmarked) [SC-248, 2-Methoxy-4-methyl-5-[4-methyl-4-[[3-(trifluoromethyl)phenyl]sulfonyl]-tetrahydro-pyran-2-yl]-pyridine], the inhibition at 3 µM was 75 to 95%.
For `CC1(S(=O)(=O)c2cccc(C(F)(F)F)c2)CCOC(c2ccc(OC(F)F)nc2)C1` (centres unmarked) [SC-418, 2-(Difluoro-methoxy)-5-[4-methyl-4-[[3-(trifluoromethyl)phenyl]sulfonyl]-tetrahydro-pyran-2-yl]-pyridine], the inhibition at 3 µM was > 95%.
In the case of `COCCOc1ccc(C2CC(C)(S(=O)(=O)c3cccc(C(F)(F)F)c3)CCO2)cn1` (racemic) [SC-420, 2-(2-Methoxy-ethoxy)-5-[4-methyl-4-[[3-(trifluoromethyl)phenyl]sulfonyl]-tetrahydro-pyran-2-yl]-pyridine], the inhibition at 3 µM is reported as 75 to 95%.
`CC1(S(=O)(=O)c2cccc(C(F)(F)F)c2)CCOC(c2cnc(C(F)(F)F)nc2)C1` (centres unmarked) [SC-304, 5-[4-Methyl-4-[[3-(trifluoromethyl)phenyl]sulfonyl]-tetrahydro-pyran-2-yl]-2-(trifluoromethyl)-pyrimidine] was tested, and the inhibition at 3 µM was 75 to 95%.
In the case of `CC1(S(=O)(=O)c2cccc(C(F)(F)F)c2)CCOC(c2ncc(OC(F)F)cc2Cl)C1` (racemic) [SC-438, 3-Chloro-5-(difluoro-methoxy)-2-[4-methyl-4-[[3-(trifluoromethyl)phenyl]sulfonyl]-tetrahydro-pyran-2-yl]-pyridine], the inhibition at 3 µM is reported as > 95%.
`CC1(S(=O)(=O)c2cccc(C(F)(F)F)c2)CCOC(c2ncc(S(C)(=O)=O)cc2F)C1` (single isomer, unassigned) [SC-119, 3-Fluoro-5-methylsulfonyl-2-[4-methyl-4-[[3-(trifluoromethyl)phenyl]sulfonyl]-tetrahydro-pyran-2-yl]-pyridine] was tested, and the inhibition at 3 µM was 75 to 95%.
In the case of `CC1(S(=O)(=O)c2cccc(C(F)(F)F)c2)CCOC(c2cnc(C3CC3)nc2)C1` (centres unmarked) [SC-205, 2-Cyclopropyl-5-[4-methyl-4-[[3-(trifluoromethyl)phenyl]sulfonyl]-tetrahydro-pyran-2-yl]-pyrimidine], the inhibition at 3 µM is reported as > 95%.
